From US20210087238A1, “CELL PENETRATING PEPTIDES AND RELATED COMPOSITIONS AND METHODS” (Phylogica Limited, priority 2017, published 2021)
Where two headings read alike, the source gives them in different places. Where a SMILES comes first, the peptide text is derived from it. Where no end group is shown, it is not given here. [ ]: non-standard residue; d: D form.

Tests used:
[1] = system: CHO-K1 cells; assay: PAP cell viability assay: SpyC_PAP conjugated to CPP_SpyT, resazurin reduction; assay type: cell-based; details: for cell death caused by SpyC-PAP conjugate: compared to TAT or Penetratin-delivered SpyC_PAP
Procedure: (§1) With the exception of SpyC PAS proteins, conjugations were set up at a SpyCatcher:SpyTag ratio of 1:1.25, with a 40 μM final concentration for the SpyCatcher moiety. SpyC proteins and SpyTag peptides were incubated for 2 h at 22° C. with gentle mixing, and then left at 4° C. overnight. Conjugation efficiencies were analyzed on 4-16% SDS-PAGE gels stained with Gel Code Blue Reagent (Thermo Fisher Scientific). SpyC_PAS proteins were conjugated with SpyTag peptides at ratio 1:1.1, mixed and incubated at room temperature for 30 mins before being stored overnight at 4° C.
(§2) All assays followed manufacturer's instructions.
SpyC-PAP/CPP-SpyT complex IC50s were ranked according to potency to determine impact of changes to primary CPP sequence. Sequence variations positively impacting on potency are retained for further optimization, whereas sequence variations deleterious to potency are excluded, thus establishing sequence activity relationships for the CPP peptide. SpyC_BLA/CPP-SpyT complex median cell fluorescence at 4 μM concentration was ranked according to intensity to determine impact of changes to primary CPP sequence. Sequence variations positively impacting on intensity were retained for further optimization, whereas sequence variations deleterious to intensity were excluded, thus establishing sequence activity relationships for the CPP peptide.
For the first readout of functional activity we chose the proapoptotic peptide PAP (SEQ ID NO:61; Ellerby et al 1999, Nat Med, 5, 1032-1038) as a functional cargo and expressed it recombinantly, fused to SpyCatcher (SEQ ID NO:83) (abbreviated as “SpyC_PAP” or “SpyC-PAP”; SEQ ID NO:62) to enable subsequent conjugation with synthetic CPP-SpyTag fusion proteins. Mammalian cells were incubated with SpyC_PAP-CPP protein conjugates, which induce apoptosis if successfully delivered into cells. […] As a representative member of the largest cluster of sequences from the screen, FPP1 was selected for additional optimization studies.

[2] = system: T47D cells; details: for IC50: 48 h; for effect on T47D cell viability of CPP-delivered DPMIα: 48 h incubation, FIG. 8A; for delivery of DPMIα, comparison of 10 μM peptide treatments: FIG. 8B, one-way ANOVA
Procedure: Cell viability was assessed by resazurin reduction potential after 48 h incubation with peptides. […] Results are representative of 3 independent experiments.
(§3) Cells in were seeded at 2000-6000 cells/well, depending on cell line, in 96-well plates (PAP assays: CHO-K1, 3000 cells/well; peptide cytotoxicity assays: CHO-K1, 5000 cells/well; Bouganin assay: CHO-K1 and CHO-K1 EGFR, 2500 cells/well; ^DPMIα assays: T47D, 5000 cells/well; Omomyc assays: all cell lines, 5000 cells/well). In brief, adherent cells were allowed to attach for 24 h prior to addition of treatments whereas suspension cell lines were treated immediately following seeding. Following 2-48 h incubations with treatments, cell viability was measure by a variety of methods. Membrane integrity was assessed by the release of LDH into the media via the CytoTox-ONE reagent (Promega). Metabolic activity was measured either by resazurin reduction potential using PrestoBlue (LifeTech) or ATP activity using CellTitre-Glo (Promega). All assays followed manufacturer's instructions. IC50 values were calculated using Prism (version 7.0a, GraphPad).
^DPMIα is a small peptide (SEQ ID NO:105), which when conjugated to cationic CPPs can internalize into cells, bind to MDM2 (acting as a dominant negative peptide) and lift p53 suppression causing indiscriminate cytotoxicity (Liu, supra).

[3] = system: T47D cells; assay: Cell viability assay of FPP1.1_SpyT variants conjugated to SpyC_PAP, resazurin reduction; assay type: cell-based; details: 48 h incubation, FIG. 5
Procedure: Cell viability assay on T47D cells of FPP1.1_SpyT peptide compared to retro-inverso (RI) and dimerised variants conjugated to the SpyCatcher_PAP (SpyC_PAP) mitochondriotoxic cargo. T47D cells were seeded at 6×10^3 cells per well and treated the following day with FPP-Toxic cargo conjugates. Following 48 h incubation cell viability was assessed by resazurin reduction potential.
as §1, §2

[4] = system: CHO-K1 cells; details: up to 50 μM; for cytotoxicity of peptides alone, cell viability: 24 h and 48 h incubation; for cytotoxicity of peptides alone, LDH release (membrane integrity): 2 h and 24 h incubation
Procedure: Cell viability effect on CHO-K1 cells of Phylomer™ CPPs and variants compared to the canonical CPPs TAT and Penetratin following 24 h (A) and 48 h (B) incubation with peptides. Cell viability was assessed by resazurin reduction potential. Membrane integrity of CHO-K1 cells were assessed by LDH release following 2 h (C) and 24 h (D) incubation with peptides. […] Results are representative of 3 independent experiments. Error bars represent standard deviation from the mean of triplicate samples.
as §3
When delivering therapeutics into a cell, it is critical that the delivery molecule itself is not cytotoxic. To assess innate cytotoxicity we tested the effects of FPPs alone on cell viability at 24 h (FIG. 6A) and 48 h (FIG. 6B) after addition of peptides. The effects of FPPs on membrane stability of cells was also assessed in a LDH enzymatic assay, measuring release of LDH from cells into surrounding media at 2 h (FIG. 6C) and 24 h (FIG. 6D) after treatment with peptides.

[5] = PAP assay, variant_SpyT/SpyC_PAP

For “PLKPKKPKTQEKKKKQPPKPKKPKTQEKKKKQPPKPK (Amino acid sequence of a Sindbis virus capsid-derived CPP (SAR12)) [FPP1-SAR12]”, the “loss/reduction of activity (potency) relative to parental FPP1” value [1, 5] was “approximately 2.2 fold”.
In the case of “SpyC only control: SpyCatcher control without CPP [reference compound]”, the “cell death caused by SpyC-PAP conjugate” value ([1]; FIG. 4A) is reported as “no effect”.
With “KTQEKKKKQTTKTKKTKTQEKKKKQTTKTKR (Amino acid sequence of a Sindbis virus capsid-derived CPP (1746P_T)) [FPP1-P_T]” the “effect of truncation or mutation on CPP potency” value ([1]; PAP assay, relative to parental FPP1) was “unaffected”.
With “PLKPKKPKTQEKKKKQPPKPKKPKTQEKKKKQPPKPKRGAS[dT][dN][dW][dY][dA][dN][dL][dE][dK][dL][dL][dR] [FPP1_^DPMIα]” the IC50 [2] was 9.1 µM and the “effect on T47D cell viability of CPP-delivered DPMIα” value [2] was “significantly more cytotoxic than ^DPMIα alone”.
`CC(C)C[C@@H](NC(=O)[C@@H](CC(C)C)NC(=O)[C@@H](CCCCN)NC(=O)[C@@H](CCC(=O)O)NC(=O)[C@@H](CC(C)C)NC(=O)[C@@H](CC(N)=O)NC(=O)[C@@H](C)NC(=O)[C@@H](Cc1ccc(O)cc1)NC(=O)[C@@H](Cc1c[nH]c2ccccc12)NC(=O)[C@@H](CC(N)=O)NC(=O)[C@H](NC(=O)[C@H](CO)NC(=O)[C@H](C)NC(=O)CNC(=O)[C@H](CCCNC(=N)N)NC(=O)[C@H](CCCNC(=N)N)NC(=O)[C@H](CCCNC(=N)N)NC(=O)[C@H](CCC(N)=O)NC(=O)[C@H](CCCNC(=N)N)NC(=O)[C@H](CCCNC(=N)N)NC(=O)[C@H](CCCCN)NC(=O)[C@H](CCCCN)NC(=O)[C@H](CCCNC(=N)N)NC(=O)CN)[C@H](C)O)C(=O)N[C@H](CCCNC(=N)N)C(=O)O` [TAT_^DPMIα, GRKKRRQRRRGAStnwyanlekllr, reference compound] (H-GRKKRRQRRRGAS[dT][dN][dW][dY][dA][dN][dL][dE][dK][dL][dL][dR]-OH; N-terminus and C-terminus assumed) gave an IC50 [2] of 36.6 µM.
In the case of “PLKPKKPKTQEKKKKQPPKPKKPKTQEKKKKQPPKPKR (Amino acid sequence of a Sindbis virus capsid-derived CPP (SVC27)) [FPP1]”, the “potency of FPP-delivered PAP conjugate (decrease in CHO-K1 cell viability), order of potency” value ([1]; CPP_SpyT conjugated to SpyC_PAP, resazurin, FIG. 4A) is reported as “greatest potency”, the “cell death caused by SpyC-PAP conjugate” value ([1]; FIG. 4A) is reported as “significant cell death” and the “delivery of DPMIα, comparison of 10 μM peptide treatments” value [2] is reported as “significantly improved delivery compared to TAT”. For the same compound, the “effect on T47D cell viability of CPP-delivered DPMIα” value [2] was “dose dependent decrease in T47D cell viability”.
For “KKQPPKPKKPKTQEKKKKQPPKPKR (Amino acid sequence of a Sindbis virus capsid-derived CPP (SAR5)) [FPP1-SAR5]”, the “loss/reduction of activity (potency) relative to parental FPP1” value [1, 5] was 3 fold.
“PLRPRRPRTQERRRRQPPRPRRPRTQERRRRQPPRPRR (Amino acid sequence of a Sindbis virus capsid-derived CPP (SAR 17)) [FPP1-SAR17]” was tested, and the “loss/reduction of activity (potency) relative to parental FPP1” value [1, 5] was 1.5 fold.
`C[C@@H](O)[C@H](NC(=O)[C@H](CCCCN)NC(=O)[C@@H]1CCCN1C(=O)[C@H](CCCCN)NC(=O)[C@H](CCCCN)NC(=O)[C@@H]1CCCN1C(=O)[C@H](CCCCN)NC(=O)[C@@H]1CCCN1C(=O)[C@@H]1CCCN1C(=O)[C@H](CCC(N)=O)NC(=O)[C@H](CCCCN)NC(=O)[C@H](CCCCN)NC(=O)[C@H](CCCCN)NC(=O)[C@@H](N)CCCCN)C(=O)N[C@@H](CCC(N)=O)C(=O)N[C@@H](CCC(=O)O)C(=O)N[C@@H](CCCCN)C(=O)N[C@@H](CCCCN)C(=O)N[C@@H](CCCCN)C(=O)N[C@@H](CCCCN)C(=O)N[C@@H](CCC(N)=O)C(=O)N1CCC[C@H]1C(=O)N1CCC[C@H]1C(=O)N[C@@H](CCCCN)C(=O)N1CCC[C@H]1C(=O)N[C@@H](CCCCN)C(=O)N[C@@H](CCCNC(=N)N)C(=O)O` [FPP1.1] (H-KKKKQPPKPKKPKTQEKKKKQPPKPKR-OH) was tested, and the IC50 [3] was 8.7 µM and the “cytotoxicity of peptides alone, cell viability” value (shortened to “cytotoxicity … cell viability”) [4] was “lack of cytotoxicity”.
In the case of “GRKKRRQRRR (Amino acid sequence of TAT CPP) [reference compound]”, the “delivery of DPMIα, comparison of 10 μM peptide treatments” value [2] is reported as “significantly improved compared to DPMIα peptide alone”, the “cytotoxicity of peptides alone, LDH release (membrane integrity)” value [4] is reported as “non-toxic” and the “cytotoxicity … cell viability” value [4] is reported as “non-toxic”.
“TLKTKKTKTQEKKKKQTTKTKKTKTQEKKKKQTTKTKR (Amino acid sequence of a Sindbis virus capsid-derived CPP (SAR16 P_T)) [FPP1-SAR16]” was tested, and the “improvement of activity relative to full length FPP1” value [1, 5] was 1.7 fold.
Work on “KKKKQPPKPKKPKTQEKKKKQPPKPKRGASAHIVMVDAYKPTKGASKKKKQPPKPKKPKTQEKKKKQPPKPKR [dimerised FPP1.1]” yielded an IC50 [3] of 6.3 µM.
With `CC[C@H](C)[C@H](NC(=O)[C@H](Cc1c[nH]cn1)NC(=O)[C@H](C)NC(=O)[C@H](CO)NC(=O)[C@H](C)NC(=O)CNC(=O)[C@H](CCCNC(=N)N)NC(=O)[C@H](CCCNC(=N)N)NC(=O)[C@H](CCCNC(=N)N)NC(=O)[C@H](CCC(N)=O)NC(=O)[C@H](CCCNC(=N)N)NC(=O)[C@H](CCCNC(=N)N)NC(=O)[C@H](CCCCN)NC(=O)[C@H](CCCCN)NC(=O)[C@H](CCCNC(=N)N)NC(=O)CN)C(=O)N[C@H](C(=O)N[C@@H](CCSC)C(=O)N[C@H](C(=O)N[C@@H](CC(=O)O)C(=O)N[C@@H](C)C(=O)N[C@@H](Cc1ccc(O)cc1)C(=O)N[C@@H](CCCCN)C(=O)N1CCC[C@H]1C(=O)N[C@H](C(=O)N[C@@H](CCCCN)C(=O)NCC(=O)O)[C@@H](C)O)C(C)C)C(C)C` [TAT-SpyTag fusion] the “cytotoxicity of peptides alone, LDH release (membrane integrity)” value [4] was “no cytotoxic activity” and the “cytotoxicity … cell viability” value [4] was “no cytotoxic activity”.
In the case of `CC[C@H](C)[C@H](NC(=O)[C@H](CCCCN)NC(=O)[C@@H](NC(=O)[C@H](CCC(N)=O)NC(=O)[C@@H](N)CCCNC(=N)N)[C@@H](C)CC)C(=O)N[C@@H](Cc1c[nH]c2ccccc12)C(=O)N[C@@H](Cc1ccccc1)C(=O)N[C@@H](CCC(N)=O)C(=O)N[C@@H](CC(N)=O)C(=O)N[C@@H](CCCNC(=N)N)C(=O)N[C@@H](CCCNC(=N)N)C(=O)N[C@@H](CCSC)C(=O)N[C@@H](CCCCN)C(=O)N[C@@H](Cc1c[nH]c2ccccc12)C(=O)N[C@@H](CCCCN)C(=O)N[C@@H](CCCCN)C(=O)NCC(=O)N[C@@H](C)C(=O)N[C@@H](CO)C(=O)N[C@@H](C)C(=O)N[C@@H](Cc1c[nH]cn1)C(=O)N[C@H](C(=O)N[C@H](C(=O)N[C@@H](CCSC)C(=O)N[C@H](C(=O)N[C@@H](CC(=O)O)C(=O)N[C@@H](C)C(=O)N[C@@H](Cc1ccc(O)cc1)C(=O)N[C@@H](CCCCN)C(=O)N1CCC[C@H]1C(=O)N[C@H](C(=O)N[C@@H](CCCCN)C(=O)NCC(=O)O)[C@@H](C)O)C(C)C)C(C)C)[C@@H](C)CC` [Penetratin CPP-SpyTag fusion], the “cytotoxicity … cell viability” value [4] is reported as “some inconsistent cytotoxicity at the highest concentrations”.
